Assay: Plasma levels of the two forms of PEA
Details: in vivo

With CCCCCCCCCCCCCCCC(=O)NCCO [PEA-um, palmitoylethanolamide] the “Plasma levels, PEA-um compared with PEA-m” value was “substantially the same”.
